From paper PMC5421785, “Citrullination only infrequently impacts peptide binding to HLA class II MHC” (PLoS ONE, 2017) come the findings set out here.

The IC50 is the midpoint of a concentration-inhibition curve.

Read-outs that look alike come from different tables or passages of the source. Ends that are not written are not given here. A value given as a limit tells only on which side of the number the result lay.

The target in experiment [1] is T1, HLA-DRB1*01:01 (Homo sapiens, UniProt P01903+P01911, A100R/D57E/F55L/F60I/F76Y/I96L/L162R/M171V/P40L/Q125E/R42F/V115G/Y59C).
T1 construct: EBV transformed homozygous cell lines were used as sources of MHC molecules; endogenous in cells; host or cells: EBV transformed homozygous cell lines
Briefly: HLA class II peptide binding, inhibition of radiolabeled peptide binding to purified MHC. The following applies: read-out: DRB1*01:01 binding capacity, WT peptide (IC50 nM).

The target in experiment [2] is T2, HLA-DRB1*04:01 (Homo sapiens, UniProt P01903+P01911, A100K/A169T/F76Y/I96L/K127E/L162R/M171V/N62H/P40V/Q125Y/R42H/S133A/S149N/S66Y/V115G/V209L/W38E).
T2 construct: EBV transformed homozygous cell lines were used as sources of MHC molecules; endogenous in cells; host or cells: EBV transformed homozygous cell lines
Described as above. To be noted: read-out: DRB1*04:01 binding capacity, WT peptide (IC50 nM).

The mark [3] stands for this setting: wild-type (unmodified Arg) 15-mer peptide, purified HLA-DRB1*01:01.
[4] abbreviates: wild-type (unmodified Arg) 15-mer peptide, purified HLA-DRB1*04:01.

Turning to QAKQESTEYRRQVQS [Vimentin 311 WT], the IC50 in experiment [1] (setting [3]) is 1500 nM; in experiment [2] (setting [4]) it was 17000 nM.
The matching figures for QDGQRYNDKDVWKPE [Collagen 36 WT]: above 40000 nM and above 40000 nM.
Turning to QGKSRLGDLYEEEMR [Vimentin 141 WT], the IC50 is 34600 nM in experiment [1] and above 40000 nM in experiment [2].
Take QGPRGLPGTPGTDGP [Collagen 716 WT]: the IC50 is 10400 nM in experiment [1] (setting [3]) and above 40000 nM in experiment [2] (setting [4]).
On to REEAENTLQSFRQDV [Vimentin 196 WT], for which the IC50 worked out at 6560 nM in experiment [1] and 6010 nM in experiment [2].
For REGSPGADGPPGRDG [Collagen 1036 WT], the IC50 in experiment [1] (setting [3]) and in experiment [2] (setting [4]) was above 40000 nM each time.
For REKLQEEMLQREEAE [Vimentin 186 WT], the 50% inhibitory concentration (IC50) in experiment [1] is 13800 nM; in experiment [2], above 40000 nM.
Consider RGQPGVMGFPGPKGA [Collagen 596 WT], for which the IC50 in experiment [1] (setting [3]) is 422 nM; in experiment [2] (setting [4]) it was above 40000 nM.
Take RQVQSLTCEVDALKG [Vimentin 321 WT]: the IC50 in experiment [1] (setting [3]) was found to be 2730 nM; in experiment [2] (setting [4]), 9140 nM.
On to RSSVPGVRLLQDSVD [Vimentin 71 WT], for which the IC50 turned out to be 261 nM in experiment [1] and 4620 nM in experiment [2].
Consider RTYSLGSALRPSTSR [Vimentin 36 WT], for which the IC50 in experiment [1] turned out to be 11 nM; in experiment [2], 769 nM.
As for SAFAGLGPREKGPDP [Collagen 1221 WT], the IC50 in experiment [1] (setting [3]) is 50 nM; in experiment [2] (setting [4]), above 40000 nM.
Turning to SAVRLRSSVPGVRLL [Vimentin 66 WT], the IC50 in experiment [1] was found to be 7.9 nM; in experiment [2], 5060 nM.
On to SKPDLTAALRDVRQQ [Vimentin 261 WT], for which the IC50 in experiment [1] was 5190 nM; in experiment [2], above 40000 nM.
On to SPGGVYATRSSAVRL [Vimentin 56 WT], for which the IC50 in experiment [1] turned out to be 7.2 nM; in experiment [2], 1150 nM.
As to SSRSYVTTSTRTYSL [Vimentin 26 WT], the IC50 in experiment [1] amounted to 70 nM; in experiment [2], 245 nM.
Turning to STEYRRQVQSLTCEV [Vimentin 316 WT], the IC50 in experiment [1] (setting [3]) was 138 nM; in experiment [2] (setting [4]), 600 nM.
As for TAALRDVRQQYESVA [Vimentin 266 WT], the IC50 in experiment [1] amounted to 771 nM; in experiment [2], 6320 nM.
With TGFPGAAGRVGPPGS [Collagen 896 WT], the results for the IC50 in experiment [1] (setting [3]) and in experiment [2] (setting [4]) were 431 nM and above 40000 nM, respectively.
Consider TGPKGARGAQGPPGA [Collagen 881 WT], for which the IC50 was 17000 nM in experiment [1] (setting [3]) and above 40000 nM in experiment [2] (setting [4]).
The matching figures for THSKRTLLIKTVETR [Vimentin 436 WT]: 109 nM and 6220 nM.
On to TIGRLQDEIQNMKEE [Vimentin 361 WT], for which the figures for the IC50 in experiment [1] (setting [3]) and in experiment [2] (setting [4]) were 13700 nM and 21800 nM, respectively.
The matching figures for TLLIKTVETRDGQVI [Vimentin 441 WT]: 826 nM and 6020 nM.
For the sequence TNEKVELQELNDRFA [Vimentin 101 WT], the IC50 turned out to be 5150 nM in experiment [1] and 17900 nM in experiment [2].
As for TNESLERQMREMEEN [Vimentin 336 WT], the IC50 was 15900 nM in experiment [1] (setting [3]) and above 40000 nM in experiment [2] (setting [4]).
For the sequence TNLDSLPLVDTHSKR [Vimentin 426 WT], the IC50 in experiment [1] (setting [3]) was 904 nM; in experiment [2] (setting [4]) it was above 40000 nM.
With TVETRDGQVINETSQ [Vimentin 446 WT], the IC50 in experiment [1] turned out to be 17900 nM; in experiment [2], 9590 nM.
In the same order, the values of VDQLTNDKARVEVER [Vimentin 161 WT] are 16500 nM and 31600 nM.
In the case of VEVERDNLAEDIMRL [Vimentin 171 WT], the IC50 in experiment [1] is 12500 nM; in experiment [2] it was 16400 nM.
As to VLLTLLVAAVLRCQG [Collagen 11 WT], the IC50 in experiment [1] (setting [3]) was 148 nM; in experiment [2] (setting [4]), above 40000 nM.
Take VSSSSYRRMFGGPGT [Vimentin 6 WT]: the IC50 in experiment [1] was 25 nM; in experiment [2], 725 nM.
The matching figures for VTTSTRTYSLGSALR [Vimentin 31 WT]: 5 nM and 1220 nM.
In the same order, the values of YATRSSAVRLRSSVP [Vimentin 61 WT] are 17 nM and 1600 nM.
In the same order, the values of YKSKFADLSEAANRN [Vimentin 291 WT] are 394 nM and 953 nM.
Regarding YRRMFGGPGTASRPS [Vimentin 11 WT], the values for the IC50 in experiment [1] and in experiment [2] were 440 nM and 9750 nM, respectively.
